We go through 18 compounds from patent publication US12156880B2, “Heterocyclic RIP1 kinase inhibitors” (Rigel Pharmaceuticals, Inc., priority 2021, dated 2024).

The test system of one assay is L929 cells. The assay can be described thus: L929 cell necroptosis assay (TNFa + zVAD, CellTiter-Glo recovery). The assay is classed as cell-based, murine. Set-up: L929-CTG-recovery, L929, TNFa + zVAD (IC50): unit not given here. As to conditions: TNFa 2 ng/mL + zVAD-fmk; for IC50: Mus musculus, L929, 18 h, read-out: L929-CTG-recovery, L929, TNFa + zVAD (IC50). The method, boiled down: (§1)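 Human U937 (50K/well, 60 uM zVAD-fmk medium, plated same day) or murine L929 (10K/well, plated 18 h, then 40 uM zVAD-fmk medium) were grown in RPMI with 10% FBS. Both were pretreated with compound for 1 h at 37 °C before TNFa at 2 ng/mL final. Viability was read by CellTiter-Glo luminescence after 18 h.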
(In general: In ATP-based viability assays light output follows the ATP content of the culture.)

For the next assay, the system named is U937 cells. The assay can be described thus: U937 cell necroptosis assay (TNFa + zVAD, CellTiter-Glo recovery). As to conditions: Homo sapiens, U-937, 18 h, TNFa 2 ng/mL + zVAD-fmk, read-out: U937 Zvad TNF CTG Recovery, U937, TNFa + zVAD (IC50). The class given is cell-based. The method, boiled down:
as §1

For another assay, the target named is T1, RIPK1 (Homo sapiens, UniProt Q13546).
T1 sequence (Q13546 1-671): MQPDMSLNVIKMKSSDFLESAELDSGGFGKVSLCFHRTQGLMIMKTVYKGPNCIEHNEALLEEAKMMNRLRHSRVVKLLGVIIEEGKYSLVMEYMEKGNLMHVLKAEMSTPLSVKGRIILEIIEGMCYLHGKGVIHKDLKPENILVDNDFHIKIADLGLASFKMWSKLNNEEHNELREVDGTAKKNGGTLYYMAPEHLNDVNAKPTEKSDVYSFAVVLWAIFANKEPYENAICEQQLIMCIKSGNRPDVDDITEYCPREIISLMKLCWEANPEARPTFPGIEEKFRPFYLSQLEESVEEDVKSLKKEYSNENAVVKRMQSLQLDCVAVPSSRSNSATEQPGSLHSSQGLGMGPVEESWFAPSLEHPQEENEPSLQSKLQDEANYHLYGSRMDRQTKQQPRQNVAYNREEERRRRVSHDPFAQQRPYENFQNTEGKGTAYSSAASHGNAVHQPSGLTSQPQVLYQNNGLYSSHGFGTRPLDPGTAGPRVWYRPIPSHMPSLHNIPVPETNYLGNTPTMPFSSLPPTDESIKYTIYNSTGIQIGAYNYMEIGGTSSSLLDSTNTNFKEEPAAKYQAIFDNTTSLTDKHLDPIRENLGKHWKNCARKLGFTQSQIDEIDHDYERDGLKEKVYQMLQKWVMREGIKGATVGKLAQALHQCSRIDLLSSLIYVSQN
The assay can be described thus: RIPK1 ADP-Glo biochemical kinase assay. The following applies: read-out: RIPK1 ADP-Glo Kinase (IC50). The method, boiled down: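 RIPK1 at 31 ng/well in Tris pH 7.4 buffer with MgCl2, BSA, DTT and MnCl2, reacted with compounds (duplicate) for 30 min at 30 °C. ADP formed detected by ADP-Glo: 40 min stop/depletion, then 30 min detection reagent at room temperature; luminescence read.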

A word on the IC50: it is the concentration that inhibits the measured activity by half. In the case of `CN1C(=O)[C@@H](NC(=O)c2cc(Oc3ccc(F)nc3)ccn2)COc2ccc(C#CC3(O)COC3)cc21` [I-5, (S)-4-((6-fluoropyridin-3-yl)oxy)-N-(7-((3-hydroxyoxetan-3-yl)ethynyl)-5-methyl-4-oxo-2,3,4,5-tetrahydrobenzo[b][1,4]oxazepin-3-yl)picolinamide], the 50% inhibitory concentration (IC50) worked out at 2020 nM with L929 cells, 34.9 nM with U937 cells and 24.6 nM on RIPK1.
Take `CN1C(=O)[C@@H](NC(=O)c2cc(Cc3csc(C(F)(F)F)n3)ccn2)COc2ccc(C#CC3(O)COC3)cc21` [I-124, (S)—N-(7-((3-hydroxyoxetan-3-yl)ethynyl)-5-methyl-4-oxo-2,3,4,5-tetrahydrobenzo[b][1,4]oxazepin-3-yl)-4-((2-(trifluoromethyl)thiazol-4-yl)methyl)picolinamide]: the half-maximal inhibitory concentration (IC50) was 1590 nM in the assay with L929 cells, 113 nM with U937 cells and 30.4 nM on RIPK1.
Take `Cc1ccc(Cc2cnn(C(=O)N[C@H]3COc4ccc(Br)cc4N(C)C3=O)c2)cn1` [I-23, (S)—N-(7-Bromo-5-methyl-4-oxo-2,3,4,5-tetrahydrobenzo[b][1,4]oxazepin-3-yl)-4-((6-methylpyridin-3-yl)methyl)-1H-pyrazole-1-carboxamide]: the “L929-CTG-recovery, L929, TNFa + zVAD (IC50)” value in the assay with L929 cells (18 hours) is given as 5000. In addition, the IC50 was found to be 81.8 nM with U937 cells and 25.7 nM on RIPK1.
As to `CN1C(=O)[C@@H](NC(=O)c2cc(Cc3cccnc3)ccn2)COc2ccc(C#CC3(O)COC3)cc21` [I-62, (S)—N-(7-((3-hydroxyoxetan-3-yl)ethynyl)-5-methyl-4-oxo-2,3,4,5-tetrahydrobenzo[b][1,4]oxazepin-3-yl)-4-(pyridin-3-ylmethyl)picolinamide], the IC50 is 1370 nM in the assay on L929 cells, 10.9 nM in the assay with U937 cells and 21.5 nM at RIPK1.
For `Cc1cccc(Cc2cnn(C(=O)N[C@H]3CCc4ccc(Br)cc4N(C)C3=O)c2)n1` [I-118, (S)—N-(8-Bromo-1-methyl-2-oxo-2,3,4,5-tetrahydro-1H-benzo[b]azepin-3-yl)-4-((6-methylpyridin-2-yl)methyl)-1H-pyrazole-1-carboxamide], in that order: 7670 nM, 256 nM and 38.4 nM.
For `CN1C(=O)[C@@H](NC(=O)c2cc(Oc3cccnc3C#N)ccn2)COc2ccc(C#CC(C)(C)O)cc21` [I-91, (S)-4-((2-cyanopyridin-3-yl)oxy)-N-(7-(3-hydroxy-3-methylbut-1-yn-1-yl)-5-methyl-4-oxo-2,3,4,5-tetrahydrobenzo[b][1,4]oxazepin-3-yl)picolinamide], the results for the half-inhibitory concentration (IC50) in the assay with L929 cells, in the assay on U937 cells and on RIPK1 were 9530 nM, 290 nM and 101 nM, respectively.
Consider `CCc1nc(Cc2ccnc(C(=O)N[C@H]3COc4ccc(C#CC5(O)COC5)cc4N(C)C3=O)c2)cs1` [I-99, (S)-4-((2-ethylthiazol-4-yl)methyl)-N-(7-((3-hydroxyoxetan-3-yl)ethynyl)-5-methyl-4-oxo-2,3,4,5-tetrahydrobenzo[b][1,4]oxazepin-3-yl)picolinamide], for which the 50% inhibitory concentration (IC50) with L929 cells is 225 nM; with U937 cells, 26.8 nM; at RIPK1 it was 26.7 nM.
As to `CN1C(=O)[C@@H](NC(=O)c2cc(Oc3cncc(F)c3)ccn2)COc2ccc(C#CC3(O)COC3)cc21` [I-59, (S)-4-((5-fluoropyridin-3-yl)oxy)-N-(7-((3-hydroxyoxetan-3-yl)ethynyl)-5-methyl-4-oxo-2,3,4,5-tetrahydrobenzo[b][1,4]oxazepin-3-yl)picolinamide], the IC50 is 382 nM in the assay with L929 cells, 3.5 nM with U937 cells and 15.9 nM on RIPK1.
On the same counts, the results for `CN1C(=O)[C@@H](NC(=O)n2cc(Cc3cccnc3F)cn2)COc2ccc(C#CC(C)(C)O)cc21` [I-43, (S)-4-((2-Fluoropyridin-3-yl)methyl)-N-(7-(3-hydroxy-3-methylbut-1-yn-1-yl)-5-methyl-4-oxo-2,3,4,5-tetrahydrobenzo[b][1,4]oxazepin-3-yl)-1H-pyrazole-1-carboxamide] are 2520 nM, 17.9 nM and 17.7 nM.
For the compound `Cc1ccc(Oc2ccnc(C(=O)N[C@H]3COc4ccc(C#CC5(O)COC5)cc4N(C)C3=O)c2)cn1` [I-3, (S)—N-(7-((3-hydroxyoxetan-3-yl)ethynyl)-5-methyl-4-oxo-2,3,4,5-tetrahydrobenzo[b][1,4]oxazepin-3-yl)-4-((6-methylpyridin-3-yl)oxy)picolinamide], the IC50 is 3850 nM with L929 cells, 152 nM with U937 cells and 28.9 nM at RIPK1.
With `CN1C(=O)[C@@H](NC(=O)n2cc(Cc3cccc(F)n3)cn2)COc2ccc(C#CC3COC3)cc21` [I-108, (S)-4-((6-Fluoropyridin-2-yl)methyl)-N-(5-methyl-7-(oxetan-3-ylethynyl)-4-oxo-2,3,4,5-tetrahydrobenzo[b][1,4]oxazepin-3-yl)-1H-pyrazole-1-carboxamide], the values for the concentration for half-maximal inhibition (IC50) in the assay with L929 cells, in the assay on U937 cells and at RIPK1 were 2090 nM, 12.8 nM and 88 nM, respectively.
Turning to `CN1C(=O)[C@@H](NC(=O)c2cc(Oc3cncc(F)c3)ccn2)COc2ccc(C#CC(C)(C)C)cc21` [I-101, (S)—N-(7-(3,3-dimethylbut-1-yn-1-yl)-5-methyl-4-oxo-2,3,4,5-tetrahydrobenzo[b][1,4]oxazepin-3-yl)-4-((5-fluoropyridin-3-yl)oxy)picolinamide], the IC50 with L929 cells was 1580 nM; in the assay on U937 cells it was 9.1 nM; at RIPK1, 55.2 nM.
As to `Cc1cccc(Cc2cnn(C(=O)N[C@H]3CCc4ccc(C#CC(C)(C)O)cc4N(C)C3=O)c2)n1` [I-119, (S)—N-(8-(3-Hydroxy-3-methylbut-1-yn-1-yl)-1-methyl-2-oxo-2,3,4,5-tetrahydro-1H-benzo[b]azepin-3-yl)-4-((6-methylpyridin-2-yl)methyl)-1H-pyrazole-1-carboxamide], the IC50 in the assay on L929 cells turned out to be 407 nM; in the assay on U937 cells, 16.6 nM; on RIPK1, 17.1 nM.
Take `CN1C(=O)[C@@H](NC(=O)c2cc(Oc3cccnc3C(F)(F)F)ccn2)COc2ccc(C#CC3(O)COC3)cc21` [I-88, (S)—N-(7-((3-hydroxyoxetan-3-yl)ethynyl)-5-methyl-4-oxo-2,3,4,5-tetrahydrobenzo[b][1,4]oxazepin-3-yl)-4-((2-(trifluoromethyl)pyridin-3-yl)oxy)picolinamide]: the IC50 in the assay on L929 cells is 10600 nM; in the assay on U937 cells, 133 nM; on RIPK1, 56.3 nM.
On to `CN1C(=O)[C@@H](NC(=O)c2cc(Cc3cccc(C#N)n3)ccn2)COc2ccc(C#CC(C)(C)O)cc21` [I-93, (S)-4-((6-cyanopyridin-2-yl)methyl)-N-(7-(3-hydroxy-3-methylbut-1-yn-1-yl)-5-methyl-4-oxo-2,3,4,5-tetrahydrobenzo[b][1,4]oxazepin-3-yl)picolinamide], for which the IC50 with L929 cells is 5670 nM; in the assay on U937 cells it was 52.2 nM; at RIPK1 it was 29.9 nM.
In the case of `Cc1ccc(Cc2cnn(C(=O)N[C@H]3COc4ccc(C#CC(C)(C)O)cc4N(C)C3=O)c2)cn1` [I-15, (S)—N-(7-(3-Hydroxy-3-methylbut-1-yn-1-yl)-5-methyl-4-oxo-2,3,4,5-tetrahydrobenzo[b][1,4]oxazepin-3-yl)-4-((6-methylpyridin-3-yl)methyl)-1H-pyrazole-1-carboxamide], the IC50 with L929 cells was 1680 nM; with U937 cells, 27.5 nM; on RIPK1, 19.4 nM.
Take `Cc1ccc(Oc2ccnc(C(=O)N[C@H]3COc4ccc(C#CC(C)(C)O)cc4N(C)C3=O)c2)c(C)n1` [I-78, (S)-4-((2,6-dimethylpyridin-3-yl)oxy)-N-(7-(3-hydroxy-3-methylbut-1-yn-1-yl)-5-methyl-4-oxo-2,3,4,5-tetrahydrobenzo[b][1,4]oxazepin-3-yl)picolinamide]: the IC50 was 6780 nM in the assay on L929 cells, 462 nM in the assay with U937 cells and 36.1 nM on RIPK1.
On to `CN1C(=O)[C@@H](NC(=O)c2cc(Oc3cccnc3F)ccn2)COc2ccc(C#CC3COC3)cc21` [I-55, (S)-4-((2-fluoropyridin-3-yl)oxy)-N-(5-methyl-7-(oxetan-3-ylethynyl)-4-oxo-2,3,4,5-tetrahydrobenzo[b][1,4]oxazepin-3-yl)picolinamide], for which the 50% inhibitory concentration (IC50) in the assay on L929 cells was found to be 155 nM; in the assay on U937 cells, 1.2 nM; on RIPK1, 14.3 nM.
